Tests used:
Format in all cases: biochemical
human cathepsin K = target: T1, human cathepsin K (Homo sapiens, UniProt P43235); experiment: Assay of cathepsin K inhibitory activity in vitro; conditions: IC50 against human cathepsin K; substrate Z-Phe-Arg-AMC 10 μM; 25° C.; read-out: Cat-K
T1 sequence (P43235 115-329): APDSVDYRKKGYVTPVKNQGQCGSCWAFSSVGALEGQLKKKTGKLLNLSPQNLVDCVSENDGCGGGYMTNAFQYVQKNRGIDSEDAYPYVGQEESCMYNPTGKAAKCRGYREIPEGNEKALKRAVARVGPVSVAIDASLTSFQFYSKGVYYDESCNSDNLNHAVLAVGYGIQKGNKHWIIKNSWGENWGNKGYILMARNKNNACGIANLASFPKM
Protocol: Assay Method of Cathepsin K Inhibitory Activity In Vitro
Using 45000-fold diluted cathepsin K solution and 10 μM Z-Phe-Arg-AMC as substrate, the test compound and cathepsin K solution were incubated at 25° C. for 15 min in a 15 μL reaction system according to the optimized experimental condition.

human cathepsin B = human cathepsin B (Homo sapiens, UniProt P07858); experiment: Assay of cathepsin B inhibitory activity in vitro; conditions: IC50 against human cathepsin B; substrate Z-Phe-Arg-AMC 10 μM; 25° C.; read-out: Cat-B
Protocol: Assay Method of Cathepsin B Inhibitory Activity In Vitro
0.01 ng/μL was the final concentration of Cathepsin B in the enzyme reaction, and Z-Phe-Arg-AMC with the final concentration of 10 μM was added into the reaction system as substrate, in the reaction system the test compound and enzyme had been incubated at 25° C. for 15 min.

human cathepsin L = human cathepsin L (Homo sapiens, UniProt P07711); experiment: Assay of cathepsin L inhibitory activity in vitro; conditions: IC50 against human cathepsin L; substrate Z-Phe-Arg-AMC 10 μM; 25° C.; read-out: Cat-L
Sequence of human cathepsin L (P07711 114-333): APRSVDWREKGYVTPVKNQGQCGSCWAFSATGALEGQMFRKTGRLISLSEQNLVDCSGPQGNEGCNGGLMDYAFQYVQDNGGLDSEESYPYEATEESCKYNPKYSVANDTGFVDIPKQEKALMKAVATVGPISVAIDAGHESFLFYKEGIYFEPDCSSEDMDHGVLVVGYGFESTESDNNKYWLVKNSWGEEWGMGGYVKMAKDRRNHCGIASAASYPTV
Protocol: Assay Method of Cathepsin L Inhibitory Activity In Vitro
0.01 ng/μL was the final concentration of Cathepsin L in the enzyme reaction, and Z-Phe-Arg-AMC with the final concentration of 10 μM was added into the reaction system as substrate, in the reaction system the test compound and enzyme had been incubated at 25° C. for 15 min.

human cathepsin S = human cathepsin S (Homo sapiens, UniProt P25774); experiment: Assay of cathepsin S inhibitory activity in vitro; conditions: IC50 against human cathepsin S; substrate Z-VVR-AMC 20 μM; 25° C.; read-out: Cat-S
Sequence of human cathepsin S (P25774 115-331): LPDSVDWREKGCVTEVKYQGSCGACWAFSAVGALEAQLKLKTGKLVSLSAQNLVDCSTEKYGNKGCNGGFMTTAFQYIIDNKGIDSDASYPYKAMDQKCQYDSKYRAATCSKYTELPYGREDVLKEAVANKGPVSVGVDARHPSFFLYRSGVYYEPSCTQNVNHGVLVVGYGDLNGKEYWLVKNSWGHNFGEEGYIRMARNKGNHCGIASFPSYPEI
Protocol: Assay Method of Cathepsin S Inhibitory Activity In Vitro
0.25 ng/L was the final concentration of Cathepsin S in the enzyme reaction, and Z-VVR-AMC with the final concentration of 20 μM was added into the reaction system as substrate, in the reaction system the test compound and enzyme had been incubated at 25° C. for 15 min.

For `CS(=O)(=O)c1ccc(-c2ccc3cc(C(=O)NC4(C(=O)NC5(C#N)CC5)CCCCC4)oc3c2)cc1` [Example 62], the IC50 (human cathepsin K) was 0.00137 µM, the IC50 (human cathepsin B) was 0.88 µM and the IC50 (human cathepsin L) was > 10 µM. The IC50 (human cathepsin S) was 4 µM.

In the case of `N#CC1(NC(=O)C2(NC(=O)c3cc4ccc(-c5ccc(C6(N)COC6)cc5)cc4o3)CCCCC2)CC1` [Example 1, 6-(4-(3-aminooxetan-3-yl)phenyl)-N-(1-((1-cyanocyclopropyl)carbamoyl)cyclohexyl)benzofuran-2-carboxamide], the IC50 (human cathepsin K) is reported as 0.00019 µM, the IC50 (human cathepsin B) is reported as 0.022 µM and the IC50 (human cathepsin L) is reported as 1.5 µM. For the same compound, the IC50 (human cathepsin S) was 1.8 µM.

`COc1cc(-c2ccc3cc(C(=O)NC4(C(=O)NC5(C#N)CC5)CCC(F)(F)CC4)oc3c2)ccc1-n1cncn1` [Example 39, N-(1-((1-cyanocyclopropyl)carbamoyl)-4,4-difluorocyclohexyl)-6-(3-methoxy-4-(1H-1,2,4-triazol-1-yl)phenyl)benzofuran-2-carboxamide] was tested, and the IC50 (human cathepsin K) was 0.00031 µM, the IC50 (human cathepsin B) was 0.409 µM and the IC50 (human cathepsin L) was > 10 µM. The IC50 (human cathepsin S) was > 10 µM.

In the case of `N#CC1(NC(=O)C2(NC(=O)c3cc4ccc(-c5ccc(S(=O)(=O)N6CCOCC6)cc5)cc4o3)CCC(F)(F)CC2)CC1` [Example 47, N-(1-((1-cyanocyclopropyl)carbamoyl)-4,4-difluorocyclohexyl)-6-(4-(morpholinosulfonyl)phenyl)benzofuran-2-carboxamide], the IC50 (human cathepsin K) is reported as 0.00101 µM, the IC50 (human cathepsin B) is reported as > 10 µM and the IC50 (human cathepsin L) is reported as > 10 µM. For the same compound, the IC50 (human cathepsin S) was > 10 µM.

Work on `N#CC1(NC(=O)C2(NC(=O)c3cc4ccc(-c5ccc(C6(O)COC6)cc5)cc4o3)CCCCCC2)CC1` [Example 79] yielded an IC50 (human cathepsin K) of 0.00072 µM, an IC50 (human cathepsin B) of 0.33 µM and an IC50 (human cathepsin L) of 7.1 µM. The IC50 (human cathepsin S) was 0.74 µM.

In the case of `N#CC1(NC(=O)C2(NC(=O)c3cc4ccc(-c5ccc(C6CCS(=O)(=O)CC6)cc5)cc4o3)CCC(F)(F)CC2)CC1` [Example 86], the IC50 (human cathepsin K) is reported as 0.0011 µM, the IC50 (human cathepsin B) is reported as 6.8 µM and the IC50 (human cathepsin L) is reported as > 10 µM. It also gave an IC50 (human cathepsin S) of 4.7 µM.

For `N#CC1(NC(=O)C2(NC(=O)c3cc4ccc(-c5ccc(C6(O)CCS(=O)(=O)CC6)cc5)cc4o3)CCC(F)(F)CC2)CC1` [Example 27, N-(1-((1-cyanocyclopropyl)carbamoyl)-4,4-difluorocyclohexyl)-6-(4-(4-hydroxy-1,1-dioxidotetrahydro-2H-thiopyran-4-yl)phenyl)benzofuran-2-carboxamide], the IC50 (human cathepsin K) was 0.00083 µM, the IC50 (human cathepsin B) was 2.1 µM and the IC50 (human cathepsin L) was > 10 µM. The IC50 (human cathepsin S) was 0.4 µM.

With `N#CC1(NC(=O)C2(NC(=O)c3cc4ccc(-c5csc(N6CCS(=O)(=O)CC6)n5)cc4o3)CCCCC2)CC1` [Example 67] the IC50 (human cathepsin K) was 0.00064 µM, the IC50 (human cathepsin B) was 0.54 µM and the IC50 (human cathepsin L) was > 10 µM. The IC50 (human cathepsin S) was 0.99 µM.

With `CS(=O)(=O)c1ccc(-c2ccc3cc(C(=O)NC4(C(=O)NC5(C#N)CC5)CCCCC4)oc3n2)cc1` [Example 82] the IC50 (human cathepsin K) was 0.0027 µM, the IC50 (human cathepsin B) was 0.2 µM and the IC50 (human cathepsin L) was > 10 µM. For the same compound, the IC50 (human cathepsin S) was 1.5 µM.

For `CS(=O)(=O)c1nc(-c2ccc3cc(C(=O)NC4(C(=O)NC5(C#N)CC5)CCCCC4)oc3c2)cs1` [Example 66], the IC50 (human cathepsin K) was 0.00081 µM, the IC50 (human cathepsin B) was 0.54 µM and the IC50 (human cathepsin L) was > 10 µM. The IC50 (human cathepsin S) was 0.969 µM.

For `N#CC1(NC(=O)C2(NC(=O)c3cc4ccc(-c5ccc6ncoc6c5)cc4o3)CCC(F)(F)CC2)CC1` [Example 32, 6-(benzo[d]oxazol-6-yl)-N-(1-((1-cyanocyclopropyl)carbamoyl)-4,4-difluorocyclohexyl)benzofuran-2-carboxamide], the IC50 (human cathepsin K) was 0.0019 µM, the IC50 (human cathepsin B) was 7.6 µM and the IC50 (human cathepsin L) was > 10 µM. The IC50 (human cathepsin S) was 3.3 µM.

`COc1cc(-c2ccc3cc(C(=O)NC4(C(=O)NC5(C#N)CC5)CCC(F)(F)CC4)oc3c2)ccc1OCS(C)(=O)=O` [Example 101] gave an IC50 (human cathepsin K) of 0.00088 µM.

With `CS(=O)(=O)COc1ccc(-c2ccc3cc(C(=O)NC4(C(=O)NC5(C#N)CC5)CCC(F)(F)CC4)oc3c2)cc1` [Example 98] the IC50 (human cathepsin K) was 0.00102 µM.

`COc1cc(-c2ccc3cc(C(=O)NC4(C(=O)NC5(C#N)CC5)CCC(F)(F)CC4)oc3c2)ccc1CS(C)(=O)=O` [Example 100] showed an IC50 (human cathepsin K) of 0.00056 µM.

From patent US10494364B2, “Cathepsin K inhibitors and application thereof” (SUNSHINE LAKE PHARMA CO., LTD., priority 2015, dated 2019)
